We go through one molecule from patent US11826365B2, “Type II raf kinase inhibitors” (Dana-Farber Cancer Institute, Inc., priority 2009, dated 2023).

Type in all cases: cell-based
The target of assay [1] is T1, B-RAF 'gatekeeper mutation' T529I (Homo sapiens, UniProt P15056, T529I).
T1 construct: expressed in transfected cells; host or cells: Ba/F3 (murine pro-B) cells transformed with B-RAF
As to the kind of experiment: Suppression of B-RAF gatekeeper mutation T529I (FIGS. 18A to 18B). Particulars: T529I confers resistance in other B-RAF inhibitors. The procedure:
Ba/F3 cells and B-RAF transformed Ba/F3 cells were maintained in RPMI 1640 medium supplemented with 10% fetal bovine serum (FBS) in a 5% CO2 incubator at 37° C. The untransformed Ba/F3 cells are supplemented with 1.0 ng/ml of recombinant IL3. 4000 Ba/F3 cells per well were plated in quadruplicate in 384-well plates, in RPMI 1640 media supplemented with 10% FBS and various concentrations of IL3. After 48 h of growth, Brightglo reagent (Promega, WI) was added to each well. Luminescent was read as counts/sec. XL-fit was used for IC50 analysis.

Another assay has as its system p38. As to the kind of experiment: Phosphorylation analysis by western blotting, phospho-p38 after anisomycin stimulation. The conditions noted are these: following stimulation with anisomycin; western blot, phospho-p38 (Thr180/Tyr182). The protocol:
(§1) The phosphorylation levels of Erk, JNK, and p38 were assessed by western blotting using phospho-specific antibodies (results not shown). In brief, cells were treated for 15 min with/without 2 uM anicomycin to stimulate the MAPK-signaling pathways. Next various concentrations of the test compound were added to treat cells for 90 minutes. Cells lysed in lysis buffer (50 mM Tris-HCl pH 7.4, 150 mM NaCl, 5 mM EDTA, 1 mM EGTA, 1% Nonidet P-40, 2 mM Na3VO4 and protease inhibitor cocktail (Roche)). Equal amounts of lysate ([…]) were subjected to SDS-PAGE followed by immunoblotting with phospho-specific antibodies—anti-phospho-Erk (Thr202/Tyr204), anti-phospho-JNK (Thr183/Tyr185) and anti-phospho-p38 (Thr180/Tyr182) antibodies—or antibodies recognizing Erk (Cell signaling). Proteins were detected by enhanced chemioluminescence (ECL-plus; Amersham), following the manufacturer's guidelines.
On the technique in general: In western blotting, separated proteins are transferred to a membrane and probed.

For the next assay, the system named is JNK. As to the kind of experiment: Phosphorylation analysis by western blotting, phospho-JNK after anisomycin stimulation. Particulars: following stimulation with anisomycin; western blot, phospho-JNK (Thr183/Tyr185). The protocol: as §1
Another assay concerns Erk1/2. As to the kind of experiment: Phosphorylation analysis by western blotting, phospho-Erk after anisomycin stimulation. Particulars: following stimulation with anisomycin; western blot, phospho-Erk (Thr202/Tyr204). The procedure:
as §1

T1 sequence (P15056 whole entry T529I): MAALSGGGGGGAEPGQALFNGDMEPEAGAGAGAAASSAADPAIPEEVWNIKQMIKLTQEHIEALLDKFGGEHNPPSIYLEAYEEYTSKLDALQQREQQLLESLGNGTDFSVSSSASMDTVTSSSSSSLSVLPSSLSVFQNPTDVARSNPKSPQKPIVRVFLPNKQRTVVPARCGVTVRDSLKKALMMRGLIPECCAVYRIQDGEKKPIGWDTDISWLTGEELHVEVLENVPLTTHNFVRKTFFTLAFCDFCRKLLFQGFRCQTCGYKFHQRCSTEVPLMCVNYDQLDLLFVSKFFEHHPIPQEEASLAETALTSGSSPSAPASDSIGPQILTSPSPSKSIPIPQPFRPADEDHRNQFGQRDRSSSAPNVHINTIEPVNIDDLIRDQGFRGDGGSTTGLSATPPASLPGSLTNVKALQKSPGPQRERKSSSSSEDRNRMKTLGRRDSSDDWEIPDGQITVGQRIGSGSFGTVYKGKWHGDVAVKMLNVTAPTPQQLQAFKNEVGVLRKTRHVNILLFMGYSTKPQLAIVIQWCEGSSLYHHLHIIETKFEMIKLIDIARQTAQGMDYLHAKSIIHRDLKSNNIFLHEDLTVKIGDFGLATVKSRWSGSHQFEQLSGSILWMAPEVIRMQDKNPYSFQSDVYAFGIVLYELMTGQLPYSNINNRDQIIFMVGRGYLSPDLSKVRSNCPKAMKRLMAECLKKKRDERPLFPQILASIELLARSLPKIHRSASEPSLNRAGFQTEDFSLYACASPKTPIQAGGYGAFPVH

For `CCN1CCN(Cc2ccc(NC(=O)c3ccc(C)c(/C=C/c4cnc5[nH]ccc5c4OC)c3)cc2C(F)(F)F)CC1` [XI-1, (E)-N-(4-((4-ethylpiperazin-1-yl)methyl)-3-(trifluoromethyl)phenyl)-3-(2-(4-methoxy-1H-pyrrolo[2,3-b]pyridin-5-yl)vinyl)-4-methylbenzamide], in assay [1], the “suppression of B-RAF gatekeeper mutation T529I” value is recorded as “can suppress”. Further, the “inhibition of phosphorylation of p38” value in the assay with p38 is recorded as “inhibits”. Further, in the assay on JNK, the “inhibition of phosphorylation of JNK” value was “inhibits”. Further, the “inhibition of phosphorylation of Erk1/2” value with Erk1/2 was “not”.
